For test [1], the target named is Kappa (κ) opioid receptor (Homo sapiens, UniProt P41145). Description: Filtration binding assay, kappa opioid receptor (U69593-H3 ligand).
The target in a further test is Mu (μ) opioid receptor (Homo sapiens, UniProt P35372). Description: Filtration binding assay, mu opioid receptor (Damgo-H3 ligand).
The target in test [2] is Delta (δ) opioid receptor (Homo sapiens, UniProt P41143). Description: Filtration binding assay, delta opioid receptor (DPDPE-H3 ligand).
Test [3] deals with human nociceptin receptor (ORL-1) (Homo sapiens, UniProt P41146). As to the kind of experiment: nociceptin receptor (ORL-1) binding assay, 125I-Tyr14-nociceptin displacement.
The target in the next test is T1, ORL-1 receptor (Homo sapiens, UniProt P41146).
T1 construct: expressed in transfected cells; host or cells: HEK-293 over-expressing ORL-1 and Gqi5
As to the kind of experiment: ORL-1 functional assay (calcium flux, FLIPR). Set-up: key to Inhibitor: a notation of “no” indicates that the compound did not act as an inhibitor; a notation of “yes” indicates that the compound acted as an inhibitor; a notation of “undetermined” indicates that the data did not clearly show whether or not the compound acted as an antagonist. Type of test: cell-based. The conditions noted are these: for Inhibitor: HEK-293 cells over-expressing ORL-1 receptor and Gqi5 G protein, calcium flux; for % Inhibition (100 nM Nociceptin): inhibition of calcium signal from 100 nM nociceptin, HEK-293 cells with ORL-1 and Gqi5. As for the experimental part: To assay the function of a test compound, a HEK-293 cell line that over-expresses the ORL-1 receptor and the Gqi5 G protein (Molecular Devices) were employed. By using a calcium flux assay, agonism and antagonism through the ORL-1 receptor were detectable.
The HEK-293 cells were plated two days prior to assay. For assay, cells in 50 μl of medium were incubated with 50 μl of dye (Molecular Devices) for 1 hour at 37° C. 100 μl of test compound diluted in Hank's Buffered Salt Solution (HBSS) at 2-fold the indicated final concentration was added and time points taken every 1 second for 1 minute and every 3 seconds for an additional 1 minute using FLIPR384 (Molecular Devices). 50 μl of nociceptin (Neosystems, SA) at 5-fold the indicated final concentration was then added and additional time points were recorded every 1 second for 1 minute and every 3 seconds for an additional 1 minute.
The resulting data were processed using Microsoft Excel 6.0 and EC50 values were determined using GraphPad Prism 3.0. For agonists, the EC50 was determined from the initial calcium signal obtained after addition of the test compound. For compounds that behaved as antagonists, the percent inhibition or IC50 of the signal resulting from the subsequent addition of the nociceptin peptide was calculated.
Background: Calcium assays in cells follow changes in intracellular calcium, usually with a dye or a luminescent sensor.

Where [4] appears, read: 2C2 cell line membrane, U69593-H3 ligand, calculated mean where tested more than once, read-out: Kappa (κ) IC50.
Setting [5] is: 1 D4 cell line membrane, Damgo-H3 ligand, calculated mean where tested more than once, read-out: Mu (μ) IC50.
The mark [6] stands for this setting: 2D4 cell line membrane, DPDPE-H3 ligand, calculated mean where tested more than once, read-out: Delta (δ) IC50.

pIC50: −log10 of the molar value. Read-outs that look alike come from different tables or passages of the source.

T1 sequence (P41146 whole entry): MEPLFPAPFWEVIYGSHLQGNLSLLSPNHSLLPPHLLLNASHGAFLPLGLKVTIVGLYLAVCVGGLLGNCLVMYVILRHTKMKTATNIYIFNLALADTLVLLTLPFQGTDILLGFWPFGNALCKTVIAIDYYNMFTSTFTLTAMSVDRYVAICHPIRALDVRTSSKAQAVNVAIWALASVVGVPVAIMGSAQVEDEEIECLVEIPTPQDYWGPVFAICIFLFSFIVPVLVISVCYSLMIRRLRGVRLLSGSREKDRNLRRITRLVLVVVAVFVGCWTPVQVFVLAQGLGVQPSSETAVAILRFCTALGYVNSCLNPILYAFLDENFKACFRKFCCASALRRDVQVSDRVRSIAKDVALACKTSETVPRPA
Sequence of human nociceptin receptor (ORL-1) (P41146 whole entry): as above
Sequence of Kappa (κ) opioid receptor (P41145 whole entry): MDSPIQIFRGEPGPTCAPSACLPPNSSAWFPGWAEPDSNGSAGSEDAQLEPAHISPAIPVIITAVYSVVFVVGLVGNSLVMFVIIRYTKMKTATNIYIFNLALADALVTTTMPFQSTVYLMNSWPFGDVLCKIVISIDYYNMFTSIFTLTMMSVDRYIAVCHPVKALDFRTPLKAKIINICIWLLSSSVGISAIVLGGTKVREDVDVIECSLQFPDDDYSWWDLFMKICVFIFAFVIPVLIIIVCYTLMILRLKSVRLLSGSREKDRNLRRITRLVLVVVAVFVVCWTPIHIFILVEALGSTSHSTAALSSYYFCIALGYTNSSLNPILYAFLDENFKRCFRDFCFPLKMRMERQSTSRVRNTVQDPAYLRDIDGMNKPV
Sequence of Mu (μ) opioid receptor (P35372 whole entry): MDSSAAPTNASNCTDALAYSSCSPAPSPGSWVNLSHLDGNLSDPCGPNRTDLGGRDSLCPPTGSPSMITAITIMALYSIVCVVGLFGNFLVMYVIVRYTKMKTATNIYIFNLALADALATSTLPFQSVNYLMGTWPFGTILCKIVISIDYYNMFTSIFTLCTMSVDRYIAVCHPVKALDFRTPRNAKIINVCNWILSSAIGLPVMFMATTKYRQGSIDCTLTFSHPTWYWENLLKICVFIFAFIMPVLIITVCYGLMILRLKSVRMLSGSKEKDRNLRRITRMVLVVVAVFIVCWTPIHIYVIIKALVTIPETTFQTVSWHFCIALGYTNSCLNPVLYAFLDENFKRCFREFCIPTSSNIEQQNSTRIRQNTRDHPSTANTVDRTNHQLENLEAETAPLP
Sequence of Delta (δ) opioid receptor (P41143 whole entry): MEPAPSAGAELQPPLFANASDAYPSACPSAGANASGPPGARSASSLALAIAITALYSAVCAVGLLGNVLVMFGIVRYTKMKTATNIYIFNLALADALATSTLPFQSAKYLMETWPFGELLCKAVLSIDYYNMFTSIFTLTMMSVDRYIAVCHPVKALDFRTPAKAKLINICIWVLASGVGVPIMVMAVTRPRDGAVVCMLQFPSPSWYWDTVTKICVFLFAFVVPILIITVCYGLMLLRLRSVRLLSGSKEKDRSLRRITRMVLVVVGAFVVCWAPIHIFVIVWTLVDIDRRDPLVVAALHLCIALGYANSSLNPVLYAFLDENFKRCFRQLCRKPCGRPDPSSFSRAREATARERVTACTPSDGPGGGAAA

In the case of `CCN1CC2(CCN(CC3CCCCCCC3)CC2)c2ccc(OC)cc21` [Compound 63], the pIC50 (in test [1] (setting [4]); at Mu (μ) opioid receptor (setting [5]); in test [2] (setting [6])) was < 5.00 throughout.
With `CCN(Cc1ccc(C)cc1)CC(O)CN1C(=O)C2(CCN(CC3CCCCCCC3)CC2)c2ccccc21` (stereo not shown) [Compound 62], the values for the pIC50 (in test [1] (setting [4]); in test [3]; on Mu (μ) opioid receptor (setting [5])) were 6.66, 6.49 and 6.21, respectively.
`O=C1N(CC2CCCCC2)c2ccccc2C12CCN(C1Cc3cccc4cccc1c34)CC2` (stereo not shown) [Compound 4]: the pIC50 (on Mu (μ) opioid receptor (setting [5]); in test [2] (setting [6])) was < 5.00 each time.
For `COc1ccc2c(c1)N(C)C(=O)C21CCN(CC2CCCCCCC2)CC1` [Compound 35, 1-methyl-5-(cyclooctyl-methyl)-10-methoxy-spiro[indoline-3,4′-piperidin]-2-one], the pIC50 in test [1] (setting [4]) was 5.91; in test [3], 5.62; at Mu (μ) opioid receptor (setting [5]), 5.79.
In the case of `CN1C(=O)C2(CCN(CC3CCCCCCC3)CC2)c2cc(F)ccc21` [Compound 9, 1-methyl-5-(cyclooctyl-methyl)-9-fluoro-spiro[indoline-3,4′-piperidin]-2-one], the Inhibitor entry at ORL-1 receptor was “undetermined”. Besides, at ORL-1 receptor, the “% Inhibition (100 nM Nociceptin)” value was found to be 41 ± 26%. The pIC50 was 6.60 in test [1] (setting [4]), 7.64 in test [3], 6.00 on Mu (μ) opioid receptor (setting [5]) and < 5.00 in test [2].
As to `CC(=O)OCCN1C(=O)C2(CCN(CC3CCCCCCC3)CC2)c2ccccc21` [Compound 46], the Inhibitor result on ORL-1 receptor was “no”. The pIC50 was 5.58 in test [1] (setting [4]), 6.74 in test [3] and 5.85 at Mu (μ) opioid receptor (setting [5]).
Take `COc1ccc2c(c1)N(CC1CC1)C(=O)C21CCN(CC2CCCCCCC2)CC1` [Compound 5, 1-(cyclopropyl-methyl)-5-(cyclooctyl-methyl)-10-methoxy-spiro[indoline-3,4′-piperidin]-2-one]: on Mu (μ) opioid receptor, the pIC50 is < 5.00.
With `O=C(O)CN1C(=O)C2(CCN(CC3CCCCCCC3)CC2)c2ccccc21` [Compound 41], the pIC50 (in test [1]; on Mu (μ) opioid receptor; in test [2]) was < 5.00 throughout.
For the compound `O=C1N(CCO)c2ccccc2C12CCN(CC1CCCCCCC1)CC2` [Compound 20], the pIC50 in test [3] is 6.54; at Mu (μ) opioid receptor (setting [5]), 5.77.
Regarding `COC(=O)CN1C(=O)C2(CCN(Cc3cccc4ccccc34)CC2)c2ccccc21` [Compound 43], in test [3], the pIC50 is 6.33.
As to `CC(C)c1ccc2c(c1)C1(CCN(CC3CCCCCCC3)CC1)C(=O)N2C` [Compound 7, 1-methyl-5-(cyclooctyl-methyl)-9-isopropyl-spiro[indoline-3,4′-piperidin]-2-one], the pIC50 in test [1] (read-out: Kappa (κ) IC50) is 7.01; in test [3], 5.13; at Mu (μ) opioid receptor (read-out: Mu (μ) IC50), 6.01.
With `Cc1ccc2c(c1)C1(CCN(CC3CCCCCCC3)CC1)C(=O)N2C` [Compound 57, 1-methyl-5-(cyclooctyl-methyl)-9-methyl-spiro[indoline-3,4′-piperidin]-2-one], the Inhibitor result at ORL-1 receptor is “no”. For the same compound, the pIC50 was 6.27 in test [1] (setting [4]), 6.35 in test [3], 5.37 on Mu (μ) opioid receptor (setting [5]) and < 5.00 in test [2] (setting [6]).
With `Cc1cccc2c1C1(CCN(CC3CCCCCCC3)CC1)C(=O)N2C` [Compound 59, 1-methyl-5-(cyclooctyl-methyl)-8-methyl-spiro[indoline-3,4′-piperidin]-2-one], the Inhibitor result at ORL-1 receptor was “yes”. In addition, the “% Inhibition (100 nM Nociceptin)” value at ORL-1 receptor was found to be 81 ± 6%. For the same compound, the pIC50 in test [1] (setting [4]) was 6.25; in test [3], 7.43; at Mu (μ) opioid receptor (setting [5]) it was 6.32.
Turning to `COC(=O)CN1C(=O)C2(CCN(C3Cc4cccc5cccc3c45)CC2)c2ccccc21` (stereo not shown) [Compound 30], the pIC50 is 5.36 in test [1] (setting [4]), < 5.00 at Mu (μ) opioid receptor (setting [5]) and < 5.00 in test [2] (setting [6]).
Take `CCCCCCN1CCC2(CC1)C(=O)N(CC(=O)OC)c1ccccc12` [Compound 26]: the pIC50 in test [3] is 6.09.
Take `O=C1N(Cc2ccccc2)c2ccccc2C12CCN(CC1CCCCCCC1)CC2` [Compound 44]: the figures for the pIC50 (in test [1] (setting [4]); in test [3]; on Mu (μ) opioid receptor (setting [5])) were 5.96, 6.92 and 6.02, respectively.
For the compound `CN1C(=O)C2(CCN(CC3CCCCCCC3)CC2)c2cc(C(F)(F)F)ccc21` [Compound 8, 1-methyl-5-(cyclooctyl-methyl)-9-trifluoromethyl-spiro[indoline-3,4′-piperidin]-2-one], the pIC50 in test [3] is 6.22; at Mu (μ) opioid receptor (setting [5]), 5.27; in test [2], < 5.00.
In turn, `COC(=O)CN1C(=O)C2(CCN(CC3CCC(C(C)(C)C)CC3)CC2)c2ccccc21` (stereo not shown) [Compound 29] showed a pIC50 in test [3] of 7.00.
On the same count and under the same terms, the same measure for `COC(=O)CN1C(=O)C2(CCN(C3CCC4CCCCC4C3)CC2)c2ccccc21` (stereo not shown) [Compound 15]: 6.05.
On to `CN1C(=O)C2(CCN(CC3CCCCCCC3)CC2)c2ccccc21` [Compound 45], for which the Inhibitor entry on ORL-1 receptor is listed as “no”. Moreover, the pIC50 in test [1] (setting [4]) was 6.03; in test [3] it was 7.49; on Mu (μ) opioid receptor (setting [5]), 5.89.
Take `COC(=O)CN1C(=O)C2(CCN(CC3CC3)CC2)c2ccccc21` [Compound 23]: the pIC50 in test [3] is 5.44.
Regarding `O=C1Nc2ccccc2C12CCN(CC1CCCCCCC1)CC2` [Compound 18], the Inhibitor entry on ORL-1 receptor is “yes”. The “% Inhibition (100 nM Nociceptin)” value at ORL-1 receptor was 45 ± 9%. Further, the pIC50 in test [1] (setting [4]) is 6.37; in test [3] it was 6.42; at Mu (μ) opioid receptor (setting [5]), 5.95.
On to `COC(=O)CN1C(=O)C2(CCN(Cc3cccc(C(F)(F)F)c3)CC2)c2ccccc21` [Compound 12], for which, in test [3], the pIC50 is 6.85.
As to `COC(=O)CN1C(=O)C2(CCN(CC3CCCCC3)CC2)c2ccccc21` [Compound 24], on ORL-1 receptor, the Inhibitor result is given as “yes” and the “% Inhibition (100 nM Nociceptin)” value worked out at 32 ± 2%. The compound also gave a pIC50 in test [3] of 6.10.
Consider `CN1C(=O)C2(CCN(C(=O)OC(C)(C)C)CC2)c2cc(C(F)(F)F)ccc21` [Compound 14, 1-methyl-5-tert-butoxycarbonyl-9-trifluoromethyl-spiro[indoline-3,4′-piperidin]-2-one], for which the pIC50 in test [3] is < 5.00.
Turning to `COC(=O)CN1C(=O)C2(CCN(Cc3ccc4ccccc4c3)CC2)c2ccccc21` [Compound 32], the pIC50 in test [3] is 6.60.
`CCCN1C(=O)C2(CCN(CC3CCCCCCC3)CC2)c2cc(C(C)C)ccc21` [Compound 17]: the results for the pIC50 (in test [1] (setting [4]); at Mu (μ) opioid receptor (setting [5]); in test [2] (setting [6])) were 5.40, < 5.00 and 5.24, respectively.
In the case of `CCN1C(=O)C2(CCN(CC3CCCCCCC3)CC2)c2ccc(OC)cc21` [Compound 55, 1-ethyl-5-(cyclooctyl-methyl)-10-methoxy-spiro[indoline-3,4′-piperidin]-2-one], the values for the pIC50 (in test [3]; at Mu (μ) opioid receptor (setting [5])) were 5.56 and 5.84, respectively.
`COC(=O)CN1C(=O)C2(CCN(Cc3ccc(Cl)cc3)CC2)c2ccccc21` [Compound 39] showed a pIC50 in test [3] of 6.15.
With `COC(=O)CN1C(=O)C2(CCN(CC3CCCCCCCCCCC3)CC2)c2ccccc21` [Compound 27], the pIC50 in test [3] was 5.95.
In the case of `COC(=O)CN1C(=O)C2(CCN(CC3CCCCCCC3)CC2)c2ccccc21` [Compound 42], the figures for the pIC50 (in test [1] (setting [4]); in test [3]; on Mu (μ) opioid receptor (setting [5])) were 6.19, 7.00 and 5.45, respectively.
Take `O=C1N(CC(O)CNCCN2CCOCC2)c2ccccc2C12CCN(CC1CCCCCCC1)CC2` (stereo not shown) [Compound 61]: the pIC50 in test [1] (read-out: Kappa (κ) IC50) is 7.00; in test [3], 6.92; at Mu (μ) opioid receptor (read-out: Mu (μ) IC50), 6.30.
With `O=C1N(CC2CO2)c2ccccc2C12CCN(CC1CCCCCCC1)CC2` (stereo not shown) [Compound 60], at ORL-1 receptor, the Inhibitor entry is given as “no”. Besides, the “% Inhibition (100 nM Nociceptin)” value on ORL-1 receptor worked out at 17 ± 3%. The pIC50 in test [1] (setting [4]) is 6.32; in test [3], 7.08; on Mu (μ) opioid receptor (setting [5]), 6.08.
As for `CN1C(=O)C2(CCN(CC3CCCCCCC3)CC2)c2ccc(O)cc21` [Compound 19], the pIC50 in test [1] (setting [4]) was 6.92; in test [3], 5.57; on Mu (μ) opioid receptor (setting [5]) it was < 5.00; in test [2] (setting [6]) it was 6.52.
In test [3], `COC(=O)CN1C(=O)C2(CCN(Cc3ccc(C(F)(F)F)cc3)CC2)c2ccccc21` [Compound 11] gave a pIC50 of 6.06.
On to `COC(=O)CN1C(=O)C2(CCN(CC3CCCCCC3)CC2)c2ccccc21` [Compound 1], for which, at ORL-1 receptor, the Inhibitor result is reported as “no”. The same compound gave a pIC50 in test [3] of 6.29.
On to `CC(=O)N[C@@H](CSCC(O)CN1C(=O)C2(CCN(CC3CCCCCCC3)CC2)c2ccccc21)C(=O)O` (stereo partly shown) [Compound 16], for which the results for the pIC50 (in test [1] (setting [4]); at Mu (μ) opioid receptor (setting [5]); in test [2] (setting [6])) were 6.44, 6.44 and < 5.00, respectively.

The values above are taken from patent US7655670B2 (Janssen Pharmaceutica N.V., priority 2005, dated 2010).
